Tests used:
Assay in all cases: relative viability (nuclei count vs DMSO), 5 days (fraction); higher = more cells survive
Axitinib + AZD7762 = compound: CNC(=O)c1ccccc1Sc1ccc2c(/C=C/c3ccccn3)n[nH]c2c1 [Axitinib] + NC(=O)Nc1cc(-c2cccc(F)c2)sc1C(=O)N[C@H]1CCCNC1 [AZD7762] (partner 0.2 µM)
Summary of the method: (§1)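 Each reported value is a median over duplicate plates. It expresses relative viability: treated-well nuclei count divided by vehicle-well nuclei count. Lung cancer cell lines in 1536-well plates were dosed by pin tool a day after seeding, alone with one drug or with a fixed anchor-drug dose plus five library-drug doses (not always all listed) in √10 steps, and nuclei were counted after 5 days.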

Bemcentinib + Olaparib = compound: Nc1nc(Nc2ccc3c(c2)CC[C@@H](N2CCCC2)CC3)nn1-c1cc2c(nn1)-c1ccccc1CCC2 [Bemcentinib] + O=C(c1cc(Cc2n[nH]c(=O)c3ccccc23)ccc1F)N1CCN(C(=O)C2CC2)CC1 [Olaparib] (partner 8 µM)
Summary of the method: as §1

[1] = compound: CC1=CC=C(C=C1)C(=O)CN2C3=C(CCCC3)SC2=N [Pifithrin_alpha] + NC(=O)Nc1cc(-c2cccc(F)c2)sc1C(=O)N[C@H]1CCCNC1 [AZD7762] (partner 0.2 µM)
Summary of the method: as §1

[2] = compound: CC1=CC=C(C=C1)C(=O)CN2C3=C(CCCC3)SC2=N [Pifithrin_alpha] + Cc1nc(Nc2ncc(C(=O)Nc3c(C)cccc3Cl)s2)cc(N2CCN(CCO)CC2)n1 [Dasatinib] (partner 0.075 µM)
Summary of the method: as §1

Cell Line | relative viability (Axitinib + AZD7762; first compound 0.005 µM) | relative viability (Axitinib + AZD7762; first compound 0.05 µM) | relative viability (Axitinib + AZD7762; first compound 0.1581 µM) | relative viability (Axitinib + AZD7762; first compound 0.5 µM) | relative viability (Bemcentinib + Olaparib; first compound 0.04 µM) | relative viability (Bemcentinib + Olaparib; first compound 0.1265 µM) | relative viability (Bemcentinib + Olaparib; first compound 0.4 µM) | relative viability (Bemcentinib + Olaparib; first compound 1.265 µM) | relative viability (Bemcentinib + Olaparib; first compound 4 µM) | relative viability ([1]; first compound 1 µM) | relative viability ([1]; first compound 3.162 µM) | relative viability ([1]; first compound 10 µM) | relative viability ([1]; first compound 31.62 µM) | relative viability ([1]; first compound 100 µM) | relative viability ([2]; first compound 1 µM) | relative viability ([2]; first compound 3.162 µM) | relative viability ([2]; first compound 10 µM) | relative viability ([2]; first compound 31.62 µM) | relative viability ([2]; first compound 100 µM) | relative viability (Axitinib + AZD7762; first compound 0.01581 µM)
SW 900 | 0.52 | 0.562 | 0.579 | 0.66 | 0.841 | 1.17 | 0.804 | 0.769 | 0.817 | 0.567 | 0.497 | 0.622 | 0.41 | 0.424 | 0.366 | 0.487 | 0.318 | 0.349 | 0.307 | –
CAL-12T | 0.623 | 0.615 | 0.564 | 0.561 | 0.705 | 0.751 | 0.716 | 0.77 | 0.698 | 0.548 | 0.658 | 0.62 | 0.401 | 0.476 | 0.327 | 0.249 | 0.258 | – | 0.196 | 0.576
A-427 | 0.805 | 0.807 | 0.718 | 0.887 | 0.737 | 0.783 | 0.853 | 0.72 | 0.71 | 0.692 | 0.675 | 0.666 | 0.644 | 0.672 | 0.824 | 0.635 | 0.599 | 0.513 | 0.702 | 0.77
NCI-H522 | 0.754 | 0.787 | 0.9 | 0.794 | 0.739 | 0.696 | 0.593 | 0.556 | 0.652 | 0.835 | 1.11 | 0.851 | 0.799 | 0.802 | 0.972 | 0.887 | 0.779 | 0.757 | 0.816 | 0.924
NCI-H596 | 1.14 | 1.12 | 1.12 | 0.943 | 0.605 | 0.749 | 0.759 | 0.613 | 0.773 | 1.18 | 0.967 | 0.926 | 0.939 | 1.03 | 0.54 | 0.588 | 0.583 | 0.494 | 0.503 | 0.978
LOU-NH91 | 0.806 | 0.814 | 0.761 | 0.78 | 0.886 | 0.848 | 0.942 | 0.927 | 0.937 | 0.625 | 0.755 | 0.683 | 0.589 | 0.604 | 0.371 | 0.501 | 0.535 | 0.475 | 0.493 | 0.723
HOP-62 | 0.654 | 0.592 | 0.728 | 0.97 | 0.342 | 0.621 | 0.575 | 0.528 | 0.472 | 1.24 | 0.803 | 0.769 | 0.659 | 0.809 | 0.726 | 0.589 | 0.578 | 0.698 | 0.638 | 0.548
NCI-H1993 | 0.819 | 0.746 | 0.883 | 0.818 | 1.05 | 1.23 | 1 | 1.15 | 1.16 | 0.528 | 0.665 | 0.69 | 0.538 | 0.569 | 0.531 | 0.532 | 0.581 | 0.559 | 0.608 | 0.933
